The results in this text go back to PMC7380940, “Alterations in the intrinsic properties of striatal cholinergic interneurons after dopamine lesion and chronic L-DOPA” (eLife, 2020).

The experiment deals with T1, Hyperpolarization-activated cyclic nucleotide-gated (HCN) channels (native, isoform not resolved).
T1 construct: native HCN current (Ih) in striatal cholinergic interneurons, acute slices
The experiment in a line: whole-cell voltage-clamp of Ih in striatal slices, concentration-response. Type of experiment: cell-based, Mus musculus. The source says: whole-cell voltage-clamp of Ih in striatal slices, concentration-response on Hyperpolarization-activated cyclic nucleotide-gated (HCN) channels (native, isoform not resolved) | Dependence of Ih density (as measured on Figure 3E) on ZD7288 concentration.

SMILES strings stand for the structures.

Compound `CC/[N+](c1ccccc1)=c1\cc(NC)n(C)c(C)n1` [ZD7288] registered a 50% inhibitory concentration (IC50) of 1400 nM.

As usually defined, the IC50 is the concentration that inhibits the measured activity by half.
